“Also recorded” adds a separate entry of the source.
What was measured:
human NK cells [1] = test: Activation of isolated human NK cells stimulated with IL-2 (CD25+CD69+ cells); format: cell-based; settings: NK cells from healthy donors, IL-2 stimulated; cortisol alone or cortisol plus relacorilant; Mann-Whitney p=0.0039
Description: (§1) Given the prominent suppression of NK related genes in GC+ cases, the direct effects of GR modulation of human NK cells were assessed. NK cells were isolated from healthy donors and stimulated with IL-2. Activation (abundance of CD25+CD69+ cells) was increased by stimulation, suppressed by cortisol, and restored by relacorilant (Mann-Whitney p=0.0039) (FIG. 11A). […] (FIG. 12D).

human NK cells [2] = test: Proliferation of isolated human NK cells stimulated with IL-2; format: cell-based; settings: NK cells from healthy donors, IL-2 stimulated; cortisol alone or cortisol plus relacorilant; Mann-Whitney p=0.0099
Description: as §1

human NK cells [3] = test: Cytokine secretion by isolated human NK cells stimulated with IL-2; format: cell-based; settings: for Cytokine secretion (both transcript and secreted protein): cortisol alone or cortisol plus relacorilant
Description: as §1

human NK cells [4] = test: Gene expression in isolated human NK cells stimulated with IL-2; format: cell-based; settings: for Expression of IL2RA (IL2 receptor) / Expression of LAG3 / Transcription of IFNG (IFNγ): IL-2 stimulated human NK cells; for Expression of IL2RA (IL2 receptor) / Expression of LAG3 / Transcription of IFNG (IFNγ) / Expression of 4-1BB (CD137 tnfrsf9): cortisol alone or cortisol plus relacorilant; for Expression of 4-1BB (CD137 tnfrsf9): stimulated human NK cells
Description: as §1

K562 tumor cells = test: K562 tumor cell killing by human NK cells in vitro; format: cell-based; settings: for Tumor cell killing by NK cells at 5:1 ratio: 5:1 effector:tumor cell ratio, Mann-Whitney p=0.004; for Tumor cell killing by NK cells: various NK:tumor cell ratios, cortisol alone or cortisol plus relacorilant
Description: Activation, proliferation, and cytokine secretion are all indicative of a functional change in NK cells mediated by cortisol and relacorilant. To determine if this functional change also affected target cell killing, NK cells were incubated with K562 tumor cells. At various NK:tumor cell ratios, cortisol suppressed tumor cell killing and relacorilant restored it (FIG. 13A). […] Thus, glucocorticoids suppress tumor cell killing by human NK cells in vitro.

[5] = test system: tyrosine aminotransferase (TAT) in HepG2 cells; settings: cited from earlier work
[6] = IL-2 stimulated human NK cells, relacorilant relative to cortisol alone

SMILES	NK cell activation (abundance of CD25+CD69+ cells) (human NK cells [1])	Proliferation of NK cells (human NK cells [2])	Cytokine secretion (both transcript and secreted protein) (human NK cells [3]; IL-2 stimulated human NK cells)	interferon γ (IFNγ) secretion (human NK cells [3]; [6])	Secretion of other effector cytokines (human NK cells [3]; human NK cells)	Expression of IL2RA (IL2 receptor) (human NK cells [4])	Expression of LAG3 (human NK cells [4])	Transcription of IFNG (IFNγ) (human NK cells [4])	Expression of chemokine ligand 3-like 1 (ccl3l1) (human NK cells [4]; stimulated NK cells)	Expression of 4-1BB (CD137 tnfrsf9) (human NK cells [4])	Tumor cell killing by NK cells at 5:1 ratio (K562 tumor cells)	Tumor cell killing by NK cells (K562 tumor cells)	Activity of tyrosine aminotransferase (TAT) [5]	Granzyme A secretion (human NK cells [3]; [6])	tumor necrosis factor (TNFα) secretion (human NK cells [3]; [6])
C[C@]12CCC(=O)C=C1CC[C@@H]1[C@@H]2[C@@H](O)C[C@@]2(C)[C@H]1CC[C@]2(O)C(=O)CO [cortisol, reference compound]	suppressed	suppressed	suppressed	suppressed	suppressed	suppressed	suppressed	suppressed	suppressed	suppressed	significant decrease	suppressed			
CC#C[C@]1(O)CC[C@H]2[C@@H]3CCC4=CC(=O)CCC4=C3[C@@H](c3ccc(N(C)C)cc3)C[C@@]21C [mifepristone]													decreases		
Cn1cc(S(=O)(=O)N2CCC3=Cc4c(cnn4-c4ccc(F)cc4)C[C@]3(C(=O)c3cc(C(F)(F)F)ccn3)C2)cn1 [relacorilant, (R)-(1-(4-fluorophenyl)-6-((1-methyl-1H-pyrazol-4-yl)sulfonyl)-4,4a,5,6,7,8-hexahydro-1H-pyrazolo[3,4-g]isoquinolin-4a-yl)(4-(trifluoromethyl)pyridin-2-yl)methanone]	restore; also recorded: significantly improved	restore; also recorded: significantly improved	restored	improved		restored; also recorded: improved	restored; also recorded: promoted; also recorded: improved	improved		promoted	significant improvement; also recorded: counteracted	restore; also recorded: counteracted		improved	improved
